Several values for one entry are separate records, joined by “and”; a condition that tells them apart may be missing. Equal entries are not always repeated. Entries after “also recorded” stand apart in the source; their conditions may differ. Where two headings read alike, the source gives them in different places. Each block holds one compound with its values, some of them ahead of it.
How the values were obtained:
MDA-MB-231 cells [1] = experiment: MTT cell proliferation / growth inhibition assay; settings: for MTT Assay death: MDA-MB-231, 24 hrs
Method: However, all compounds were tested in a cell proliferation assay to identify cytotoxic compounds and determine compound concentrations that can be used to examine effects on motility and invasion.
EC50 values were determined from sixteen concentration titrations. Growth inhibition of MDA-MB-231 cells, which express high levels of S100A4, was examined in a 96-well plate MTT assay at eight drug concentrations after treatment for 24 hrs.

C3R/C81S/C86S S100A4 = C3R/C81S/C86S S100A4 (Homo sapiens, UniProt P26447, C3R/C81S/C86S); experiment: Myosin-IIA binding to C3R/C81S/C86S S100A4
C3R/C81S/C86S S100A4, sequence (P26447 whole entry C3R/C81S/C86S, one chain of several): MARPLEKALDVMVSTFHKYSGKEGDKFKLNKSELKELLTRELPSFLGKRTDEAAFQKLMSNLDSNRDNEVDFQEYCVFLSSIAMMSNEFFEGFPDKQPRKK

[2] = biological target: S100A4/myosin-IIA interaction (Homo sapiens, UniProt P26447); experiment: Fluorescence polarization assay monitoring the S100A4/myosin-IIA interaction with FITC-MIIA^1908-1923 peptide; assay type: binding
S100A4/myosin-IIA interaction, sequence (P26447 whole entry, one chain of several): as the sequence (P26447 whole entry C3R/C81S/C86S, one chain of several) above, with R3C, S81C, S86C counted along it
Text: An agent that prevents or inhibits the interaction between S100A4 and myosin-IIA may be determined by any method known in the art. For example, a fluorescence polarization assay that monitors the S100A4/myosin-IIA interaction using a fluorescein-tagged myosin-IIA peptide that comprises the minimal S100A4 binding site may be used as described in U.S. application Ser. No. 11/989,901, herein included in full.
A fluorescence polarization assay was developed that monitors the S100A4/myosin-IIA interaction using a fluorescein-tagged myosin-IIA peptide that comprises the minimal S100A4 binding site (FITC-MIIA^1908-1923) (21, 24). […] In collaboration with the Rapid Access to NCI Discovery Resources (R•A•N•D) program, the fluorescence polarization assay was used to screen the LOPAC (1280 compounds) and Maybridge (14,320 compounds) chemical libraries to identify compounds that disrupt the S100A4/myosin-IIA interaction.
EC50 values were determined from sixteen concentration titrations.

C81S/C86S S100A4 = C81S/C86S S100A4 (Homo sapiens, UniProt P26447, C81S/C86S); experiment: Mass spectrum of C81S/C86S S100A4 after treatment with compound (covalent modification); settings: Cys81 and Cys86 substituted with serine
C81S/C86S S100A4, sequence (P26447 whole entry C81S/C86S, one chain of several): as the sequence (P26447 whole entry C3R/C81S/C86S, one chain of several) above, with R3C counted along it
Text: (§1) FIG. 3A-3D. Mass spectrum of wild-type S100A4 (A) and following treatment with NSC 95397 (B). Mass spectrum of C81S/C86S S100A4 (C) and following treatment with NSC 95397 (D).

wild-type S100A4 = wild-type S100A4 (Homo sapiens, UniProt P26447); experiment: Mass spectrum of wild-type S100A4 after treatment with compound (covalent modification)
wild-type S100A4, sequence (P26447 whole entry, one chain of several): as the sequence (P26447 whole entry C3R/C81S/C86S, one chain of several) above, with R3C, S81C, S86C counted along it
Text: as §1

MDA-MB-231 cells [3] = experiment: Boyden chamber assay of serum-stimulated chemotaxis; assay type: cell-based; settings: Homo sapiens; MDA-MB-231 chemotaxis towards serum (5% FBS), 24 hr; read-out: EC50 inhibition of serum-stimulated migration
Method: FIG. 4. Boyden chamber assay examining the effects of lead compounds on MDA-MB-231 chemotaxis. Cells were serum starved for 5 hrs and plated into the upper chamber of a transwell in serum-free medium. Complete medium (5% FBS) was added to the lower chamber and the cells were allowed to migrate for 24 hr. Cells that penetrated the filter were stained with DAPI and quantified by fluorescence microscopy using 10 fields per filter.
As proof-of-principle that S100A4 inhibitors affect the motile and invasive capabilities of carcinoma cells, cell migration assays examining the ability of NSC 5069 and XAX 00168 to inhibit chemotaxis of MDA-MB-231 cells towards serum in a Boyden chamber assay were initiated (FIG. 4). Both NSC 5069 and XAX 00168 inhibit serum-stimulated migration to varying extents with EC50 values of approximately 40 and 20 μM for NSC 5069 and XAX 00168, respectively.

[4] = read-out: EC50 (inhibition of the S100A4/myosin-IIA interaction)
[5] = Table 1, sixteen concentration titrations, read-out: EC50

Compound: O=C1C(=O)c2ccccc2-c2ccccc21 [NSC10446/ NSC7389, Phenanthrene-9,10-dione]
- MTT Assay death (MDA-MB-231 cells [1]; @ 25 μM): 100% death @ 25 μM

Compound: CSCC[C@H](NC(=O)[C@H](C)NC(=O)[C@H](CC(=O)O)NC(=S)Nc1ccc2c(c1)C(=O)OC21c2ccc(O)cc2Oc2cc(O)ccc21)C(=O)N[C@@H](CC(N)=O)C(=O)N[C@@H](CCCNC(=N)N)C(=O)N[C@@H](CCC(=O)O)C(=O)N[C@H](C(=O)N[C@@H](CO)C(=O)N[C@@H](CO)C(=O)N[C@@H](CC(C)C)C(=O)N[C@@H](CCCCN)C(=O)N[C@@H](CC(N)=O)C(=O)N[C@@H](CCCCN)C(=O)N[C@@H](CC(C)C)C(=O)N[C@@H](CCCNC(=N)N)C(=O)N[C@@H](CCCNC(=N)N)C(=O)O)C(C)C [FITC-MIIA^1908-1923]
- myosin-IIA binding (C3R/C81S/C86S S100A4): undetectable

Compound: Cc1oc(-c2ccc(Cl)cc2)cc1C(=O)/C(C#N)=C/c1ccccc1 [Maybridge SP00172, 2-{[5-(4-chlorophenyl)-2-methyl-3-furyl]carbonyl}-3-phenylacrylonitrile]
- MTT Assay death (MDA-MB-231 cells [1]; at 50 μM): 100% death at 50 μM
- EC50 [2, 4]: 38 to 46 µM

Compound: O=Nc1c(O)c2ccccc2c2ccc([N+](=O)[O-])cc12 [NSC402968]
- EC50 [2, 5]: 17 µM

Compound: O=C1C(=O)c2cccc([N+](=O)[O-])c2-c2ccccc21 [NSC10204, 4-nitrophenanthrene-9,10-dione]
- MTT Assay death (MDA-MB-231 cells [1]; at 100 μM): 80% death at 100 μM

Compound: O=C1C2=C(SCCS2)C(=O)c2ccccc21 [NSC55480, 2,3-dihydrobenzo[g][1,4]benzodithiine-5,10-dione]
- MTT Assay death (MDA-MB-231 cells [1]; @ 2.5 μM): 100% death @ 2.5 μM

Compound: O=C1C(SCCO)=C(SCCO)C(=O)c2ccccc21 [NSC95397, 2,3-bis(2-hydroxyethylsulfanyl)naphthalene-1,4-dione]
- MTT Assay death (MDA-MB-231 cells [1]; @ 2.5 μM): 100% death @ 2.5 μM
- covalent modification of S100A4 (mass) (C81S/C86S S100A4): prevented modification
- EC50 [2, 4]: 7.6 µM
- covalent modification of S100A4 (mass) (wild-type S100A4): modification of each monomer at two residues

Compound: CSc1sc(C(=O)NN)cc1-c1nc(C)cs1 [Maybridge KM03663, 5-methylsulfanyl-4-(4-methyl-1,3-thiazol-2-yl)thiophene-2-carbohydrazide]
- MTT Assay death (MDA-MB-231 cells [1]; at 150 μM): 100% death at 150 μM
- EC50 [2, 4]: 38 to 46 µM

Compound: O=C1C(=O)c2cc([N+](=O)[O-])ccc2-c2ccccc21 [NSC5425/ NSC23180, 2-nitrophenanthrene-9,10-dione]
- MTT Assay death (MDA-MB-231 cells [1]; @ 10 μM): 100% death @ 10 μM

Compound: O=C1c2ccccc2-c2ccccc2C1(Cl)Cl [NSC6339/ NSC135154, 10,10-dichlorophenanthren-9-one]
- MTT Assay death (MDA-MB-231 cells [1]; @ 2.5 μM): 100% death @ 2.5 μM

Compound: O=C(O)CC1OCC=C2CN3CCC45C6=CC(=O)C(=O)C([N+](=O)[O-])=C6NC4C1C2CC35 (stereo not drawn) [NSC5069, Cacotheline]
- MTT Assay toxicity (MDA-MB-231 cells [1]; MDA-MB-231, eight drug concentrations, 24 hrs): did not exhibit toxicity; also recorded: no toxicity detected
- EC50 (MDA-MB-231 cells [3]): ~40 µM
- EC50 [2, 5]: 19 µM
- EC50 [2, 4]: 19 µM

- EC50 [2, 5]: 4.3 µM
Compound: [H]/N=C1\C(=O)c2ccccc2-c2ccccc21 [NSC139152, 10-iminophenanthren-9-one]

- GI50 (MDA-MB-231 cells [1]; Homo sapiens, MDA-MB-231): 190 µM
- IC50 (MDA-MB-231 cells [1]; Homo sapiens, MDA-MB-231, 24 h, read-out: MTT Assay IC50): 190 µM
- EC50 (MDA-MB-231 cells [3]): ~20 µM
- EC50 [2, 5]: 46 µM
- EC50 [2, 4]: 38 to 46 µM and 46 µM
Compound: O=C1NC(=S)S/C1=C\c1cc([N+](=O)[O-])ccc1Sc1ccc(C(F)(F)F)cn1 [Maybridge XAX00168, 5-(5-nitro-2{[5-(trifluoromethyl)-2-pyridyl]thio}benzylidene)-2-thioxo-1,3-thiozolan-4-one]

Compound: CC(=O)c1ccc2c(c1)-c1ccccc1C(=O)C2=O [NSC400689, 3-acetylphenanthrene-9,10-dione]
- MTT Assay death (MDA-MB-231 cells [1]; @ 2.5 μM): 100% death @ 2.5 μM

Compound: O=C1C(=O)c2cc(Cl)ccc2-c2ccccc21 [NSC102363, 2-chlorophenanthrene-9,10-dione]
- MTT Assay death (MDA-MB-231 cells [1]; @ 10 μM): 100% death @ 10 μM

— US20130090355A1, “CHEMICAL AGENTS FOR THE PREVENTION OF INHIBITION OR TUMOR METASTASIS” (ALBERT EINSTEIN COLLEGE OF MEDICINE OF YESHIVA UNIVERSITY, priority 2010, published 2013)
